Measured values from ChEMBL document CHEMBL1147009, “Synthesis and SAR studies of diarylpyrrole anticoccidial agents” (Bioorg Med Chem Lett, 2006).

Assays:
[1] = test system: Eimeria acervulina; assay: Anticoccidial activity against Eimeria acervulina at 100 ppm; type: functional
[2] = test system: Eimeria tenella; assay: Anticoccidial activity against Eimeria tenella at 100 ppm; type: functional
[3] = biological target: cGMP-dependent protein kinase (Eimeria tenella, UniProt Q8MMZ8); assay: Inhibition of Eimeria tenella PKG
cGMP-dependent protein kinase, sequence (Q8MMZ8 whole entry): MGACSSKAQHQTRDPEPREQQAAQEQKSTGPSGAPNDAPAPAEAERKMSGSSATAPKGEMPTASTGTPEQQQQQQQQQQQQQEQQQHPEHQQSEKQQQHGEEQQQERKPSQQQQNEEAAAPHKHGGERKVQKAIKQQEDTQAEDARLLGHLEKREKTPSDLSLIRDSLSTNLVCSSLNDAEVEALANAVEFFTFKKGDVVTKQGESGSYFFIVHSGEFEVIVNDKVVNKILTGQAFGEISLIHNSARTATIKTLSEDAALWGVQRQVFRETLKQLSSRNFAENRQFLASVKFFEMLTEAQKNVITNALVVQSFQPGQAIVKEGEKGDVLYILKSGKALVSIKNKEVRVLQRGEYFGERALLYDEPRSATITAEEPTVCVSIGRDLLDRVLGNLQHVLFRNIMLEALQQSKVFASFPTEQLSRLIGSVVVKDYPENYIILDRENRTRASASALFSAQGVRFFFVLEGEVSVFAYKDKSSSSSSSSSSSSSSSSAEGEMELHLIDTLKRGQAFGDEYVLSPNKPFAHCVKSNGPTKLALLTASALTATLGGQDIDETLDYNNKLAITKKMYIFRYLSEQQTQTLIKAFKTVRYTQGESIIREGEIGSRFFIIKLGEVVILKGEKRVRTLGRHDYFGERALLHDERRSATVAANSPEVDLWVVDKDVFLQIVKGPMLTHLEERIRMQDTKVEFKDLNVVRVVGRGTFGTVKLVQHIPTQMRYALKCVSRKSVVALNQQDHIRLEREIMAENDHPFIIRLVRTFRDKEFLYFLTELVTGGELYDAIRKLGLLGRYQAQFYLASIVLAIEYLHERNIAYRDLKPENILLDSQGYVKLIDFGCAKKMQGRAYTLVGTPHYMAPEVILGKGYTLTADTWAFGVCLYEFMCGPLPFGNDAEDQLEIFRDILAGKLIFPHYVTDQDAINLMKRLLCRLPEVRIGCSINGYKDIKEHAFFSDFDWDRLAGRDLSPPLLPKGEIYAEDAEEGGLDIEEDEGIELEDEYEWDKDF

## CCOC(=O)c1cc(-c2ccncc2)c(-c2ccc(F)cc2)[nH]1
[1]
  Activity: <50%
[2]
  Activity: <50%
[3]
  IC50: 430 nM

## OCCN1CCCC1c1cc(-c2ccncc2)c(-c2ccc(F)cc2)[nH]1 (centres undefined)
[1]
  Activity: <50%
[2]
  Activity: <50%
[3]
  IC50: 2.1 nM

## OCC1CCN(Cc2cc(-c3ccncc3)c(-c3ccc(F)cc3)[nH]2)CC1
[1]
  Activity: <50%
[2]
  Activity: <50%
[3]
  IC50: 13 nM

## CNC(=O)N1CCCC1c1cc(-c2ccncc2)c(-c2ccc(F)cc2)[nH]1 (centres undefined)
[1]
  Activity: <50%
[2]
  Activity: <50%
[3]
  IC50: 2.3 nM

## CN1CCCCC1c1cc(-c2ccncc2)c(-c2ccc(F)cc2)[nH]1 (centres undefined)
[1]
  Activity: <50%
[2]
  Activity: <50%
[3]
  IC50: 2.7 nM

## O=C(O)Cc1cc(-c2ccncc2)c(-c2ccc(F)cc2)[nH]1
[1]
  Activity: <50%
[2]
  Activity: <50%
[3]
  IC50: > 1000 nM

## CN(C)C(=O)Cc1cc(-c2ccncc2)c(-c2ccc(F)cc2)[nH]1
[1]
  Activity: <50%
[2]
  Activity: <50%
[3]
  IC50: 4.1 nM

## C[C@@H](O)CN1CCCC1c1cc(-c2ccncc2)c(-c2ccc(F)cc2)[nH]1 (some centres undefined)
[1]
  Activity: <50%
[2]
  Activity: <50%
[3]
  IC50: 3.3 nM

## CN(C)Cc1cc(-c2ccncc2)c(-c2ccc(F)cc2)[nH]1
[1]
  Activity: < 50%
[3]
  IC50: 0.35 nM

## C[C@H](O)CN1CCCC1c1cc(-c2ccncc2)c(-c2ccc(F)cc2)[nH]1 (some centres undefined)
[1]
  Activity: <50%
[2]
  Activity: 80%
[3]
  IC50: 2.8 nM

## Fc1ccc(-c2[nH]c(CN3CCC3)cc2-c2ccncc2)cc1
[1]
  Activity: <50%
[2]
  Activity: <50%
[3]
  IC50: 1.3 nM

## CN1CCCC1c1cc(-c2ccncc2)c(-c2ccc(F)cc2)[nH]1 (centres undefined)
[1]
  Activity: 80%
[2]
  Activity: <50%
[3]
  IC50: 1 nM

## CN(C)CCc1cc(-c2ccncc2)c(-c2ccc(F)cc2)[nH]1
[1]
  Activity: 50%
[2]
  Activity: 50%
[3]
  IC50: 2.5 nM

## Fc1ccc(-c2[nH]c(CN3CCCCC3)cc2-c2ccncc2)cc1
[1]
  Activity: <50%
[2]
  Activity: <50%
[3]
  IC50: 3.7 nM

## Fc1ccc(-c2[nH]c(C3CCCN3)cc2-c2ccncc2)cc1 (centres undefined)
[1]
  Activity: <50%
[2]
  Activity: 50%
[3]
  IC50: 3.1 nM

## CC(C)C(c1cc(-c2ccncc2)c(-c2ccc(F)cc2)[nH]1)N(C)C (centres undefined)
[1]
  Activity: 80%
[2]
  Activity: 50%
[3]
  IC50: 0.71 nM

## Fc1ccc(-c2[nH]c(CN3CCOCC3)cc2-c2ccncc2)cc1
[1]
  Activity: <50%
[2]
  Activity: <50%
[3]
  IC50: 7.6 nM

## O=S(=O)(c1ccc(F)cc1)N1CCCC1c1cc(-c2ccncc2)c(-c2ccc(F)cc2)[nH]1 (centres undefined)
[1]
  Activity: <50%
[2]
  Activity: <50%
[3]
  IC50: 1.5 nM

## O=C(OCc1ccccc1)N1CCCC1c1cc(-c2ccncc2)c(-c2ccc(F)cc2)[nH]1 (centres undefined)
[1]
  Activity: <50%
[2]
  Activity: <50%
[3]
  IC50: 2.7 nM

## CCN(C)CCCc1cc(-c2ccncc2)c(-c2ccc(F)cc2)[nH]1
[1]
  Activity: <50%
[2]
  Activity: <50%
[3]
  IC50: 4.1 nM
